For test [1], the system named is HeLa cervical adenocarcinoma. Kind of test: Cell Proliferation Inhibition Assay (14C-thymidine incorporation), HeLa. As to conditions: Homo sapiens. The test is classed as cell-based. The text has this: (§1) The ability of a test compound to inhibit unregulated cell proliferation may be determined by measuring incorporation of ^14C-labelled thymidine into newly synthesized DNA within cell lines derived from carcinomas originating from several tissues. Accordingly, the anti-proliferative effect of a compound on cells with a variety of phenotypes may be determined.
(§2) Carcinoma cell lines include those such as HeLa cervical adenocarcinoma (American Type Culture Collection (ATCC), Virginia, Cat. #CCL-2), A375 malignant melanoma (ATCC CRL-1619), SK-OV-3 ovarian adenocarcinoma (ATCC HTB-77), HCT-116 colon carcinoma (CCL-247), PC-3 prostate adenocarcinoma (ATCC CRL-1435), and MDA-MB-231 (Xenogen Corp.)
(§3) The carcinoma cells are trypsinized and counted. The cells (3000-8000 count) are added to each well of a 96-well CytoStar tissue culture treated scintillating microplate (Amersham #RPNQ0160) in complete medium (100 μL) and the plate is then incubated in complete medium for 24 hrs at 37° C. in an inert atmosphere containing 5% CO2. Test compound (1 μL) in 100% DMSO is added to the plate test-wells with DMSO only added to control-wells. The plate is incubated in complete medium for a second 24 hr period at 37° C. in an atmosphere containing 5% CO2.
(§4) An aliquot of a solution of Methyl ^14C-thymidine (56 mC/mmol) (NEN #NEC568 or Amersham #CFA532) and complete medium (20 uL to provide 0.2 μCi/well) is then added to each well and the plate is incubated for a third 24 hr period at 37° C. in an atmosphere containing 5% CO2. The plate contents are then discarded, the plate is washed twice with PBS (200 μL) and then PBS (200 μL) is added to each well. The plate is sealed and the degree of methyl ^14C-thymidine incorporation is quantified on a Packard Top Count.
(In general: Dividing cells build labelled thymidine or BrdU into new DNA.)

In the next test the test system is A375 malignant melanoma. As to the kind of experiment: Cell Proliferation Inhibition Assay (14C-thymidine incorporation), A375. It counts as cell-based. As to conditions: Homo sapiens, A-375.
Text: as §1, §2, §3, §4

In another test the target is T1, CDK1 (Homo sapiens, UniProt P06493).
T1 construct: purchased New England Biolabs, Beverly, Mass; 6020; host or cells: insect cells
T1 sequence (P06493 whole entry): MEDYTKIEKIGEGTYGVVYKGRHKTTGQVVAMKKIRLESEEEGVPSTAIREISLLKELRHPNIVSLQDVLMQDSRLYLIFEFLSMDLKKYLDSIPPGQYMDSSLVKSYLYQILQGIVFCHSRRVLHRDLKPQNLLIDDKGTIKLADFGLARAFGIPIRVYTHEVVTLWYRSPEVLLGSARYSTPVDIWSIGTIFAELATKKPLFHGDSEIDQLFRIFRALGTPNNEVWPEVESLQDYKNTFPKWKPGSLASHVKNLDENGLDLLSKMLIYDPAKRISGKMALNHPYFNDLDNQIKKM
T1 sequence (P14635 whole entry partner): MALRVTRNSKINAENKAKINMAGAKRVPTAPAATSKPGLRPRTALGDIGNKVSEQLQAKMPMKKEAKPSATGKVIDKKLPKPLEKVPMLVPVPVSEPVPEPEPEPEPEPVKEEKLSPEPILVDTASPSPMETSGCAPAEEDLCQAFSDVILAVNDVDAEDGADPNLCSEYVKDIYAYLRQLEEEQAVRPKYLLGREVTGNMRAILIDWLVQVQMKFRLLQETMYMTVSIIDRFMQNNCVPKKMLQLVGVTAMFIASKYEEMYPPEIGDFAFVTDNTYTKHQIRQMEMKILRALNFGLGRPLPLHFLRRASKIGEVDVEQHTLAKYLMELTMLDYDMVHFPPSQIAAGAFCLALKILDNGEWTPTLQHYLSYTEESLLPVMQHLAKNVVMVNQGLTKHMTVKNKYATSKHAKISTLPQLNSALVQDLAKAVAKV
As to the kind of experiment: CDK-1 screening assay. The test is classed as biochemical. How it is done: (§5) 70 μL of the kinase reaction mixture was dispensed into the well of a streptavidin coated FlashPlate™ (Cat. #SMP103, NEN, Boston, Mass.).
(§6) Test compound stock in 100% DMSO (1 μL) was added to the wells resulting in a final concentration of 1% DMSO in the reaction with a 100 μL final reaction volume. Each enzyme was diluted in 50 mM Tris-HCl pH=8.0, 0.1% BSA and 30 μL was added to each well to initiate the reaction. The reaction was incubated for one hour at 30° C. At the end of the 1 hr incubation, the reaction was terminated by aspirating the mixture from the plate and washing the wells twice with PBS containing 100 mM EDTA. The biotinylated peptide substrate became immobilized on the Flashplate and the incorporation of ^33P-γ-ATP was measured by reading the plate on a scintillation counter. Inhibition of the enzymatic activity was measured by observing a reduced amount of ^33P-γ-ATP incorporated into the immobilized peptide.
(§7) A maximum and minimum signal for the assay was determined on each plate. The percent inhibition of a test compound was calculated according to the formula: […]
(§8) The term “ND” means “not determined.”

Another test concerns the target T2, EGFR (Homo sapiens, UniProt P00533).
T2 construct: intracellular portion of EGFR started at nucleotide 2189 (corresponding to amino acid 667) and ended at the termination codon; made in house; host or cells: Sf9 insect cells (baculovirus)
Kind of test: EGFR Kinase Assay. The test is classed as biochemical. The note with it: test concentration of 2 μM. The source says: The EGFR kinase used was a fusion of Glutathione-S-Transferase (GST) and a PCR amplified intracellular portion of EGFR (NM_005228). The intracellular portion of EGFR started at nucleotide 2189 (corresponding to amino acid 667) and ended at the termination codon. The portion was PCR amplified with primers that added the lambda attB sequences to each end, recombined into an entry vector, then into a GST destination vector (as described in Gateway Technologies Manual by Invitrogen Corporation, Carlsbad, Calif.).
The destination vector was recombined in the DH10BAC strain of bacteria to produce a bacmid. The bacmid was transfected into Sf9 cells and the supernatant containing the baculovirus was collected. The GSTEGFR protein was purified using large cultures of Sf9 cells infected with stock virus. After an appropriate period of time, the cells were collected and lysed. The GSTEGFR was then purified from the lysate on Glutathione-Sepharose columns (as described by Amersham Biosciences, Buckinghamshire, United Kingdom).
The EGFR substrate was prepared by biotinylating polyGluTyr (128 mg) (Sigma, St. Louis, Mo.) in a 1×PBS buffer incubated together with a 12-fold molar excess of Sulfo-NHS-LC-Biotin on ice for at least 2 hrs. The free biotin was separated from the biotinylated polyGluTyr on a gel filtration column.
A mixture of a 10× kinase buffer (500 mM Tris at pH 8.0, 100 mM Magnesium Chloride and 1 mM Sodium Vanadate), DTT (1 mM final from 500 mM stock), ATP (5 μM final from 10 mM stock), biotinylated polyGluTyr (10 μg/μL stock), γ-^33P ATP (10 μCi/μL stock) and water was added to each well (90 μL/well) of a Streptavidin Flashplate (Perkin Elmer, Wellesley, Mass.).
Test compound in 100% DMSO (2 μL) was added to the appropriate wells. Diluted GSTEGFR (1:300 dilution in 50 mM Tris at pH 8.0 and 0.1% bovine serum albumin) (10 μL) was added to the wells to initiate the reactions.
The plates were incubated at 30° C. for 1 hr with shaking. The reacted contents were removed and the plates were sequentially washed three times with a 1×PBS stop buffer (300 μL without Magnesium and Calcium) and 100 mM EDTA. After the final wash, the same stop buffer (200 μL) was added to the wells. The plates were then sealed and read on the TopCount scintillation counter.
Test compounds were assayed in triplicate at 16 concentrations at half-log dilutions starting at 200 uM. A maximum and minimum signal for the assay was determined on each plate. The percent inhibition of a test compound was calculated according to the formula
For a series of test concentrations, the IC50 was derived by graphing percent inhibition against the log of the concentrations tested for a given compound. The percent inhibition results are shown in Table 1 at a test concentration of 2 μM. For those compounds with an IC50, the IC50 value is shown in parentheses.

The target in a further test is VEGFR2 (Rattus norvegicus, UniProt O08775). Kind of test: VEGFR2 screening assay. The test is classed as biochemical. As to the method: A kinase reaction mixture was prepared containing 50 mM Tris-HCl pH=8, 10 mM MgCl2, 0.1 mM […], 1 mM DTT, 10 μM ATP, 0.025 μM biotinylated histone-H1 peptide substrate and 0.2 μCuries per well ^33P-γ-ATP (2000-3000 Ci/mmol). 70 μL of the kinase reaction mixture was dispensed into the well of a streptavidin coated FlashPlate™ (Cat. #SMP103, NEN, Boston, Mass.).
Chain of VEGFR2 (O08775 786-1343): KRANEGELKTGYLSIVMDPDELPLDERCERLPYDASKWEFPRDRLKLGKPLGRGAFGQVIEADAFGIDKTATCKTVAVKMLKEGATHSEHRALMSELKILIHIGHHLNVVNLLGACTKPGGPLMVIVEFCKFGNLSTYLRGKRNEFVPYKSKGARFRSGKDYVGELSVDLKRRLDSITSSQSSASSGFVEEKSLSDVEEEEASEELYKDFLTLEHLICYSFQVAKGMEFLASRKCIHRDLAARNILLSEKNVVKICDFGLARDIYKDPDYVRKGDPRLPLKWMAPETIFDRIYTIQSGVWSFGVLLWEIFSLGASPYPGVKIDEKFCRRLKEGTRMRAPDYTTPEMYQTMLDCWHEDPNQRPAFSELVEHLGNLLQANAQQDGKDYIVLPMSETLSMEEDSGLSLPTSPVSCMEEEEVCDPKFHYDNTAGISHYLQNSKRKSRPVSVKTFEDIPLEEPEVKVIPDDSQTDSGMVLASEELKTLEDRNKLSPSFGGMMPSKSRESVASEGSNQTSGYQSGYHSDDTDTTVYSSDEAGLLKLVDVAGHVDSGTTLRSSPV
as §6
The VEGF-R2 enzyme is a fusion protein containing a polyhistidine tag at the N terminus followed by amino acids 786 to 1343 of the rat VEGF-R2 kinase domain (Accession number U93306). The assay used 150 ng of the N-terminal biotinylated peptide biotin-[…]-amide SEQ ID NO: 2) (VEGF-R2) per well.
as §7
For a series of test concentrations, the IC50 was derived by graphing percent inhibition against the log of the concentrations tested for a given compound with results shown in Table 2. For those compounds without an IC50, the inhibition values in percent are shown at a test concentration of 2 μM. The term “ND” means “not determined.”

The target of a further test is T3, CDK2 (Homo sapiens, UniProt P24941).
T3 construct: purchased Upstate Biotech, Lake Placid, N.Y
Kind of test: CDK-2 screening assay. It counts as biochemical. How it is done:
as §5, §6
The CDK2 enzyme in complex with cyclin A is commercially available (Upstate Biotech, Lake Placid, N.Y.).
as §7, §8

In the next test the test system is HCT-116 colon carcinoma. Kind of test: Cell Proliferation Inhibition Assay (14C-thymidine incorporation), HCT-116. The test is classed as cell-based. The note with it: Homo sapiens.
Text: as §1, §2, §3, §4

Bounds are passed on as bounds.

For orientation: IC50 means the concentration that gives 50% inhibition. In general, inhibition refers to the percentage by which the read-out fell short of the control.

T2 sequence (P00533 669-1210 limits assumed): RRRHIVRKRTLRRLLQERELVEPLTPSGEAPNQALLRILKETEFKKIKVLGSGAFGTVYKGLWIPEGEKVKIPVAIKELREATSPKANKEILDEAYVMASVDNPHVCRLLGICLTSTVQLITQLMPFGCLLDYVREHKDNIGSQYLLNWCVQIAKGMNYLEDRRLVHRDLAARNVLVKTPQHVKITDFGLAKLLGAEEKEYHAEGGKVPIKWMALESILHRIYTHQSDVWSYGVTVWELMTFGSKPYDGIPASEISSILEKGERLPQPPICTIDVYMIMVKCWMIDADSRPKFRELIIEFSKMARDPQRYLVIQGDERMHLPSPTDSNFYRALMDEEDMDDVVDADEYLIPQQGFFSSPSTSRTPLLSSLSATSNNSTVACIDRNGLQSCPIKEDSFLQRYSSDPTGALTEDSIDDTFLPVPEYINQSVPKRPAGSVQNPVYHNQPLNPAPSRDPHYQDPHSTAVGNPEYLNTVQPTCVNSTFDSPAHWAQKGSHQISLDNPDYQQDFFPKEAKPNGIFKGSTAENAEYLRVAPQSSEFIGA

In the case of `O=S(=O)(NCCO)c1ccc(Nc2nc(Nc3ccc(S(=O)(=O)NCCO)cc3)c3cnn(C4CCCCC4)c3n2)cc1` [Cpd 17, 1-cyclohexyl-N^4,N^6-bis-{4-[(2-hydroxy-ethyl)-amino-sulfonyl]-phenyl}-1H-pyrazolo[3,4-d]pyrimidine-4,6-diamine], the 50% inhibitory concentration (IC50) in test [1] is 100 µM; with A375 malignant melanoma it was 100 µM; against CDK1, 12 µM; at VEGFR2, 90 µM; on CDK2 it was 3.88 µM; in the test with HCT-116 colon carcinoma, 100 µM. This molecule displayed an inhibition at 2 µM on EGFR of 22%.
Turning to `CC(C)(C)n1ncc2c(Nc3ccc(S(=O)(=O)NCCO)cc3)nc(Nc3ccc(S(=O)(=O)NCCO)cc3)nc21` [Cpd 18, 1-t-butyl-N^4,N^6-bis-{4-[(2-hydroxy-ethyl)-amino-sulfonyl]-phenyl}-1H-pyrazolo[3,4-d]pyrimidine-4,6-diamine], the IC50 in test [1] was 100 µM; in the test on A375 malignant melanoma, 1.2 µM; against CDK1 it was 2.79 µM; against VEGFR2 it was over 100 µM; at CDK2, 0.493 µM; with HCT-116 colon carcinoma, 100 µM. On EGFR, this molecule showed an inhibition at 2 µM of 23%.
With `O=S(=O)(NCCO)c1ccc(Nc2nc(Nc3ccc(S(=O)(=O)NCCO)cc3)c3cnoc3n2)cc1` [Cpd 19, N^4,N^6-bis-{4-[(2-hydroxy-ethyl)-amino-sulfonyl]-phenyl}-isoxazolo[5,4-d]pyrimidine-4,6-diamine], the IC50 in test [1] was 100 µM; with A375 malignant melanoma, 100 µM; against CDK1, over 100 µM; at VEGFR2 it was 75 µM; against CDK2, 9.18 µM; in the test on HCT-116 colon carcinoma it was 100 µM. Besides, the inhibition at 2 µM against EGFR stood at 12%.
On to `O=S(=O)(NCCO)c1ccc(Nc2nc(Nc3ccccc3)c3cnoc3n2)cc1` [Cpd 20, N-(2-hydroxy-ethyl)-4-(4-phenylamino-isoxazolo[5,4-d]pyrimidin-6-ylamino)-benzenesulfonamide], for which the IC50 in test [1] is 25 µM; in the test on A375 malignant melanoma it was 100 µM; on CDK1, over 100 µM; at VEGFR2, 23.1 µM; at CDK2, 4.4 µM; in the test with HCT-116 colon carcinoma, 100 µM. Further, on EGFR, the inhibition at 2 µM worked out at 26%.
`CC(=O)n1ncc2c(Nc3ccc(S(=O)(=O)NCCO)cc3)nc(Nc3ccc(S(=O)(=O)NCCO)cc3)nc21` [Cpd 21, 1-acetyl-N^4,N^6-bis-{4-[(2-hydroxy-ethyl)-amino-sulfonyl]-phenyl}-1H-pyrazolo[3,4-d]pyrimidine-4,6-diamine]: the IC50 in test [1] turned out to be 100 µM; in the test with A375 malignant melanoma, 100 µM; against CDK1, 1.87 µM; against VEGFR2, 13.2 µM; at CDK2, 0.533 µM; in the test with HCT-116 colon carcinoma it was 100 µM. In addition, on EGFR, the inhibition at 2 µM came out at 53%.
